Assay results taken from paper PMC10848080 (CNS Neuroscience & Therapeutics, 2023).
Converted amounts (≈) assume the structure as drawn.

Tests used:
[1] = tested on: TDC; assay: qPCR quantification of TDC in feces of 6-OHDA-lesioned rats; format: in vivo, rat; details: PIP dose-dependent, after 3 weeks, vs 6-OHDA
Procedure: (§1) The damage of rat dopaminergic neurons was assessed by apomorphine (APO, Sigma)‐induced rotation tests at the 5th, 8th, and 11th weeks of experiment.[17] […] The dosages of PIP used in the present study were safe for rats.[21] Rats were treated once a day for 6 weeks. The 6‐OHDA group and sham group were treated with the same volume of substrate solution (0.5% CMC‐Na).
(§2) Fecal microbial genomic DNA was extracted using the TIANamp Stool DNA Kit (TIANGEN). Plasmids containing the target sequences of E. faecalis 16 S rRNA and TDC were prepared (Figure S1A,B). Then, 10‐fold serial dilutions of plasmid were used as the templates to make the standard curves for absolute quantification. Quantitative PCR (qPCR) experiments were performed on 40 ng DNA in 20 μL reactions, following the amplification program: initial denaturation at 95°C for 15 min, 45 cycles of 95°C for 10 s, 58°C for 31 s, 72°C for 30 s, ended with a final extension at 72°C for 10 min. The absolute E. faecalis 16 S rRNA gene and TDC gene copies in fecal DNA samples were calculated based on the standard curves.

[2] = tested on: E. faecalis; assay: qPCR quantification of E. faecalis in feces of 6-OHDA-lesioned rats; format: in vivo, rat; details: PIP 10 and 20 mg/kg after 3 weeks, dose-dependent, combination vs L-dopa after 6 weeks
Procedure: as §1, §2

[3] = tested on: E. faecalis; assay: qPCR of E. faecalis in feces of E. faecalis-transplanted rats; format: in vivo, rat; details: 1 week of administration, combination vs L-dopa alone
Procedure: as §2

[4] = tested on: DA in rat striatum; assay: Striatal DA content by HPLC-ECD in 6-OHDA-lesioned rats; format: in vivo; details: 6 weeks, L-dopa vs 6-OHDA, combination vs L-dopa alone in lesioned striatum
[5] = tested on: TDC; assay: TDC gene expression and specific activity in feces of E. faecalis-transplanted rats; format: in vivo, rat; details: 1 week of administration, combination vs L-dopa alone
Procedure: as §2
(§3) The rat feces were weighed and suspended in lysis buffer. After centrifugation at 800 g for 10 min, the supernatants were collected and added with lysozyme. The mixtures were centrifuged at 12,000 g for 20 min, and the supernatants were obtained for protein concentration determination and the detection of TDC level in rat feces using rat TDC ELISA kit (MM‐71824R1, MEIMIAN). The results are expressed as U/mg protein.

[6] = tested on: 6-OHDA-lesioned rats; assay: Open-field test in 6-OHDA-lesioned rats; format: in vivo, rat; details: L-dopa 60 mg/kg, PIP 20 mg/kg, once a day for 6 weeks
Procedure: Adaptively raised for 1 week, SD rats were randomly divided into two groups: the sham‐operated group (n = 6) and the 6‐OHDA‐lesioned group (n = 36). After deep anesthesia, the rats were stereotaxically injected with 3 μL 6‐OHDA (4 mg/mL in 0.02% ascorbic acid saline; Sigma) into the left striatum following our previously described protocol,[17] and the rats in sham group were injected with 3 μL vehicle (0.02% ascorbic acid saline).
as §1
Open‐field test was conducted on the 2nd day after the rotation test. The movements in 5 min of rats in open‐field apparatus (100 × 100 × 40 cm), including total movement distance (cm) and horizontal velocity (cm/s), were recorded by the TruScan Activity Monitoring System (USA). Abnormal involuntary movements (AIMs) were scored according to the rating system described in Lee's study.[22] […] Then, the dyskinesia behaviors of rats, including axial dystonia, reverse rotation, and limb and masticatory dyskinesia, were evaluated during a 1‐min monitoring period, repeated every 20 min for 2 h. […]

[7] = tested on: tyrosine hydroxylase (TH); assay: Western blot of tyrosine hydroxylase in lesioned substantia nigra; format: in vivo, rat; details: 6-OHDA-lesioned rats, 6 weeks
Procedure: as §1
The left substantia nigra (SN) of rat was lysed using non‐denaturing lysis buffer, and immunoblotting was performed following the reported protocol.[19] Protein homogenates were subjected to Western blot analysis using antibodies against tyrosine hydroxylase (TH, 1:1000, Sigma) and GAPDH (1:2000, Proteintech). The blots were visualized by a NcmECL Ultra Western blot diction kit (NCM Biotech), and densitometry was analyzed by using the Fusion FX Image system (Vilber Lourmat).

[8] = tested on: TDC; assay: ELISA of TDC specific activity in feces of 6-OHDA-lesioned rats; format: in vivo, rat; details: 6-OHDA-lesioned rats after 6 weeks of administration; combination vs L-dopa alone
Procedure: as §3

[9] = tested on: TDC mRNA in E. faecalis ATCC29212; assay: RT-qPCR of TDC gene expression in E. faecalis ATCC29212; format: cell-based, Enterococcus faecalis; details: PIP 10 or 20 μg/mL, 24 h
Procedure: (§4) The growth control group and negative control group were set. The cultures were incubated at 37°C under an anaerobic environment. The 1 mL of incubation sample and twofold cold acetonitrile were added to terminate the incubation. After centrifugation at 12,000 g for 10 min, the supernatants were collected for HPLC‐FLD analysis.
Total RNA was extracted from the culture pellets generated in the experiment described above “Incubation of E. faecalis in vitro” using the RNAprep Pure Cell/Bacteria Kit (TIANGEN). A FastQuant RT Kit (with gDNase) (TIANGEN) was used to transcribe RNA to cDNA. After that, RT–qPCR was conducted using 2 × SuperReal PreMix Plus (TIANGEN) and performed on the CFX Connect™ Real‐Time System (Bio–Rad) following the amplification program: 95°C for 15 min, followed by 40 cycles of 95°C for 10 s, 52°C for 31 s, and 72°C for 30 s. The program ended with a final extension at 72°C for 10 min. The relative gene expression was calculated using the 2^−^ΔΔ^Ct method.

[10] = tested on: MAO; set-up: method as in PMID 32099971; details: reported; cited from earlier work
[11] = tested on: E. faecalis ATCC29212; assay: L-dopa conversion rate in E. faecalis ATCC29212 culture; format: cell-based, Enterococcus faecalis; details: 24 h, anaerobic, vs L-dopa alone
Procedure: (§5) The column was maintained at 40°C.
as §4

[12] = tested on: intestinal bacteria of SD rats; assay: L-dopa conversion rate in rat intestinal bacteria (feces) culture in vitro; format: cell-based; details: 24 h, anaerobic, vs L-dopa alone
Procedure: as §5
(§6) The whole blood, colon contents, jejunum, and brain tissues of SD rats (n = 6) were collected. Colonic contents were pooled and suspended in anaerobic medium (Aobox) at a ratio of 1:20 (g/mL), the mixtures were centrifuged at 800 g (4°C) for 10 min, and then collected the supernatant for culture. Tissues were pooled and weighed, then homogenized with 5 mM phosphate buffer (pH = 7.4) at the ratio of 1:5 (g/ml). […] The intestinal bacterial cultures were incubated in an anaerobic chamber, while tissues or blood incubation systems were incubated at 37°C for 12 and 24 h, and then the incubation was terminated with three‐fold acetonitrile. After centrifugation at 12,000 g for 10 min, the supernatants were collected for HPLC‐FLD analysis.

[13] = tested on: TDC in E. faecalis; assay: ELISA of TDC specific activity in E. faecalis ATCC29212; format: cell-based, Enterococcus faecalis; details: PIP 10 or 20 μg/mL, 24 h
Procedure: as §4
The bacterial protein was extracted from the culture pellets generated as described above. After being washed with PBS three times, the bacterial pellets were re‐suspended in 400 μL PBS containing 2% ethanol and incubated in ice bath for 30 min. After centrifugation at 1000 g for 10 min, the sediments were collected and lysed using lysis buffer containing 100 μg/mL lysozyme, then centrifuged at 12,000 g for 20 min to collect the supernatants. After determining the protein concentration using the BCA kit (Beyotime), the assay of TDC level in E. faecalis was performed according to the Microorganism TDC Elisa kit (MM‐925239O2, MEIMIAN) guideline. Briefly, the extracted protein samples were added to the coated wells together with the balance solution and HRP conjugate reagent, then incubated at 37°C. […] After adding the stop solution to each well, the optical density was measured at the wavelength of 450 nm. The specific activity of TDC was calculated based on the standard curve. The results are expressed as U/mg protein.

[14] = PIP 10 and 20 mg/kg, rats; cited from earlier work
[15] = set-up: method as in PMID 23603295; details: previous studies; cited from earlier work
[16] = L-dopa conversion rate in rat whole blood and tissue homogenates in vitro; format: in vitro ADME; details: L-dopa 0.3 mM + PIP 10 or 20 μg/mL, 12 and 24 h, vs L-dopa alone
Procedure: as §5, §6

[17] = target: T1, TDC (from E. faecalis NCTC6783) (Enterococcus faecalis, UniProt P0DTQ4); assay: TDC enzyme assay (DA produced from L-dopa); format: biochemical; details: 250 μM PIP, L-dopa 0.3 mM, pH 5.5, relative to solvent control
T1 construct: purchased Aladdin
T1 sequence (P0DTQ4 1-620): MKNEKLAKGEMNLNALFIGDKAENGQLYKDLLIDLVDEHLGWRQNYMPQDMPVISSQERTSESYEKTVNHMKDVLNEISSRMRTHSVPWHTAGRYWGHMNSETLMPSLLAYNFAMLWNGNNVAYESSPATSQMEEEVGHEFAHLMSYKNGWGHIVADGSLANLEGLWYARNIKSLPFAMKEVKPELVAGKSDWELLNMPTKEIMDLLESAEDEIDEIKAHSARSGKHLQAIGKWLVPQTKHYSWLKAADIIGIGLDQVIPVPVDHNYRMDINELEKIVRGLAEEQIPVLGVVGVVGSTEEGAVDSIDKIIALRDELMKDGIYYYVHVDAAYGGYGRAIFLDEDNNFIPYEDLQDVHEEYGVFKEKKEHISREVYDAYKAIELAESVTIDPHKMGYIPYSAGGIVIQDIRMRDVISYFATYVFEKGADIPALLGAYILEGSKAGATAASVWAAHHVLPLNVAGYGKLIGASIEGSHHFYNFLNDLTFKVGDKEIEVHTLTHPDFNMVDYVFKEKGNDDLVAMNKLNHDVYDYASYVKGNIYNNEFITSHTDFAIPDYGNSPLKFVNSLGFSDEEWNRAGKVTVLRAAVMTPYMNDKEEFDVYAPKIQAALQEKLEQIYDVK
Procedure: (§7) TDC (from E. faecalis NCTC6783, Aladdin; 0.02 mg/mL) and PLP (2 mM, Sigma) were pre‐incubated with various concentrations (0.01–250 μM) of PIP in 0.2 M sodium acetate buffer (pH = 5.5) at 37°C for 15 min. […] After 20 min of incubation, the reaction was quenched by diluting 1:10 in methanol containing 0.7% perchloric acid.[25] The mixture was centrifuged at 12,000 g (4°C) for 5 min, and the supernatant was collected for the determination of DA by HPLC‐ECD.

[18] = Solubility limit of PIP in the TDC enzyme assay; format: physicochemical; details: 37 °C, pH 5.5, aqueous buffer
Procedure: as §7

## N[C@@H](Cc1ccc(O)c(O)c1)C(=O)O [L‐dopa, Levodopa]
[1]
  expression of TDC in feces (qPCR): further increased
[2]
  abundance of E. faecalis in feces (qPCR): did not show a notable effect
[3]
  abundance of E. faecalis in feces: no significant effect
[4]
  DA level in striatum (HPLC-ECD): significantly increased
[5]
  expression of TDC in feces: upregulation
[6]
  movement speed in open field: alleviate the bradykinesia
  total movement distance in open field: alleviate the bradykinesia

## O=C(/C=C/C=C/c1ccc2c(c1)OCO2)N1CCCCC1 [PIP, piperine]
[1]
  expression of TDC in feces (qPCR): significantly suppressive effect
[2]
  abundance of E. faecalis in feces (qPCR): significantly reduce
[7]
  lesions of dopaminergic neurons (TH protein level in SN): efficiently attenuate the lesions
[8]
  specific activity of TDC in feces (ELISA): significantly decrease
[9]
  gene expression of TDC in E. faecalis: reduced
[10]
  MAO inhibition: potential to inhibit MAO activity
[11]; PIP 10 μg/mL + L-dopa 0.3 mM
  decrease of CR of L-dopa: 17.22%
[11]; PIP 20 μg/mL + L-dopa 0.3 mM
  decrease of CR of L-dopa: 32.01%
[12]; PIP 10 μg/mL + L-dopa 0.3 mM
  decrease of conversion rate (CR) of L-dopa: 17.02%
[12]; PIP 20 μg/mL + L-dopa 0.3 mM
  decrease of conversion rate (CR) of L-dopa: 27.55%
[13]
  specific activity of TDC in E. faecalis: reduced
[14]
  safety of the dosages used: safe
[15]
  crossing of the blood-brain barrier: can cross
  tissue distribution: wide tissue distribution
[16]; rat brain homogenate
  CR of L-dopa in brain homogenate: no significant difference
[16]; rat small intestine homogenate
  CR of L-dopa in small intestine homogenate: no significant difference
[16]; rat whole blood
  CR of L-dopa in blood: no significant difference
[17]
  decrease in TDC activity: 20.95%
[18]
  solubility: 250 µM (≈ 71.3 µg/mL)
